Measurements taken from patent US10052340B2 (XIAMEN UNIVERSITY, priority 2012, dated 2018).
Substitutions are numbered along the chain they refer to.

Key:
[1] = tested on: wild-type mouse liver cells; assay: LPS induced inflammatory gene expression in wild-type mouse liver cells; format: cell-based; conditions: FIG. 19
From the text: Ivermectin and LPS are used to treat wild-type and FXR knockout mouse liver cells.

[2] = tested on: FXR targeting genes and genes associated with the saccharide, triglyceride and cholesterol metabolism; assay: Fluorescence quantitative PCR of liver gene expression in treated wild-type mice; format: in vivo; conditions: wild-type mouse liver, real-time PCR, FIG. 13
Method: Total RNA is extracted from the tissues using an RNA extraction kit (Omega Bio-Tek, GA). TAKARA reverse transcription kit is used for the reverse transcription, and fluorescence quantitative PCR is performed with CFX™ 96 (BIO-RAD) real-time monitoring system using SYBR green fluorescent dye so as to analyze the gene expression level. The expression level of Actin gene is used as the internal reference for the results. The reaction system comprises SYBR Premix Ex Taq (2×) of 12.5 μl, PCR forward primer (10 μM) of 1 μl, PCR reverse primer (10 μM) of 1 μl, cDNA template of 2 μl, and sterilized distilled water of 8.5 μl, 25 μl in total. The two-step amplification PCR procedures are as follows: pre-denaturation at 95° C. for 30 s, PCR reaction at 95° C. for 5 s, and 60° C. for 40 s. 40 cycles.
The expression of genes associated with saccharides, lipids, and cholesterol metabolism in mouse liver treated with ligand medicaments is detected by fluorescent quantitative real-time PCR.

human FXR = target: T1, human FXR (Homo sapiens, UniProt Q96RI1); assay: Reporter gene analysis, COS-7 cells cotransfected with full-length FXR and EcRE-Luc; format: cell-based; conditions: 0.5 μM, COS-7, EcRE reporter, FIG. 2
T1 construct: expressed in transfected cells; host or cells: COS-7
T1 sequence (Q96RI1 1-472 isoform Q96RI1-2): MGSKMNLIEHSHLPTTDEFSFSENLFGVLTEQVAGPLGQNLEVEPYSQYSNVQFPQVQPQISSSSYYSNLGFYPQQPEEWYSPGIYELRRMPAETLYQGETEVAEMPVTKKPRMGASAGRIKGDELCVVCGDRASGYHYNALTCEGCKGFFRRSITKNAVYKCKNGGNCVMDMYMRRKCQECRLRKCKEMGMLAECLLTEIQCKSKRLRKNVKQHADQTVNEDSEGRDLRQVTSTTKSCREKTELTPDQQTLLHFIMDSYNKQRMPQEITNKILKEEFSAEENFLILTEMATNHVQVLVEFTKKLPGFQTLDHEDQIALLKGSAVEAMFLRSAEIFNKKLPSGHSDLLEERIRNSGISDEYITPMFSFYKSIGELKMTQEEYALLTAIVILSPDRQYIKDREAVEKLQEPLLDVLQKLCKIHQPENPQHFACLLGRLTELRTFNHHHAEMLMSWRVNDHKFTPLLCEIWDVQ
Method: (§1) DMEM medium containing 10% fetal bovine serum is used to perform the culture of monkey kidney epithelial cell COS-7 cells, and COS-7 cells are inoculated onto a 24-well plate on the day before transfection with an inoculation density of 5×10^4 cells/well, and transfected on the next day. The transfection is the transient transfection performed using Lipofectamine 2000 (Invitrogen). In the reporter gene analysis experiment, 200 ng of a nuclear receptor full-length expression plasmid or the expression plasmid of the mutant thereof, 200 ng of endogenous promoter reporter gene, and 30 ng of Renilla luciferase expression plasmid are used for cotransfection. 500 μl Opti-MEM is added to each well and cultured for 5 h, followed by adding a ligand medicament diluted in Opti-MEM to reach the corresponding concentration, and treating for 18 h. Various nuclear receptors and the corresponding reporter gene used are as follows: human FXR, EcRE-Luc; human PPARs (α, β, and γ), PPRE-Luc; human RORs (α, β and γ), Pcp2/RORE-Luc; human GR and PR, MMTV-Luc; human RARα and RARβ, and βRE-Luc.
(§2) A ligand can be tested for the affinity to FXR since the ligand can induce FXR to recruit coregulators after binding to FXR.

FXR L287T = target: T2, FXR L287T (Homo sapiens, UniProt Q96RI1, L301T); assay: Reporter gene analysis with FXR point mutant L287T in COS-7 cells; format: cell-based; conditions: COS-7, EcRE reporter, vs wild-type FXR, FIG. 5
T2 construct: the expression plasmid expressing full-length FXR (wt) or with mutations at the corresponding sites; expressed in transfected cells; host or cells: COS-7
T2 sequence (Q96RI1 1-472 isoform Q96RI1-2 L287T): T1 sequence (Q96RI1 1-472 isoform Q96RI1-2) with L287T
Method: (2) The expression vector of FXR with point mutations at key binding sites is obtained. Quick-Change site-directed mutagenesis kit (Stratagene) is used for mutation, and the mutation reaction system is as follows: wild-type plasmid pCMX-FXR (50 ng) of 0.5 μl, mutation primer (100 μM) of 0.2 μl, pfu DNA polymerase (Invitrogen) (2 U) of 1 μl, 10 mM dNTPs of 1 μl, 10× PCR buffer of 5 μl, and ddH2O of 43 μl. PCR procedures are performed as follows: 94° C. for 2 min; 94° C. for 30 s, 55° C. for 1 min, 72° C. for 7 min, 15 cycles. 20 μl PCR product is digested with Dpn I […], followed by taking and transforming 2 μl digestion product into E. coli Trans 109 competent cells, ice bath for 30 min, and heat shock at 42° C. for 30 s. 250 μl of LB liquid medium without antibiotics is added, and preshaken at 225 rpm at 37° C. for 40 min, followed by taking 150 μl of products, spreading same on LB solid medium plates with ampicillin at 100 μg/ml and culturing them at 37° C. overnight. On the next day, the single colony is picked out and placed in 2 ml LB liquid medium containing ampicillin at 100 μg/ml, and cultured at 37° C. overnight. Plasmid extraction is performed on the shaken bacterial solution using Qiagen MiniPrep Plasmid Minipreparation Kit. The plasmid is identified by sequencing.

[3] = tested on: other detected nuclear receptors; assay: Reporter gene analysis, COS-7 cells cotransfected with other nuclear receptors (PPARs, RORs, GR, PR, RARα, RARβ, PXR, CAR); conditions: 0.5 μM, COS-7, FIG. 2
Method: as §1, §2

`CC[C@H](C)[C@H]1O[C@]2(CC[C@@H]1C)C[C@@H]1C[C@@H](C/C=C(\C)C(O[C@H]3C[C@H](OC)C(O[C@H]4C[C@H](OC)[C@@H](O)[C@H](C)O4)[C@H](C)O3)[C@@H](C)/C=C/C=C3\CO[C@@H]4[C@H](O)C(C)=CC(C(=O)O1)[C@]34O)O2` (some centres unmarked) [ivermectin] was tested. Which “expression of IL-6 induced by LPS” value [1] did it give?
Its value is “clearly inhibit”.

And the “expression of MIP-1a induced by LPS” value [1]?
The value was “clearly inhibit”.

What about the “expression of TNFa induced by LPS” value [1] of the same compound?
Its value is “clearly inhibit”.

And the “expression of iNOS induced by LPS” value [1]?
Its value is “clearly inhibit”.

What about the “expression of genes associated with saccharides, lipids and cholesterol metabolism in liver” value [2] of the same compound?
The value was “can regulate the expression of genes associated with metabolism”.

What about the “transcriptional activity of FXR” value (human FXR) of the same compound?
Its value is “can only specifically activate the transcriptional activity of FXR”.

And the “transcriptional activity of FXR mutant L287T” value (FXR L287T)?
Its value is “significantly increasing”.

What about the “transcriptional activity of the other detected nuclear receptors” value [3] of the same compound?
Its value is “does not produce any effect”.
